Activity calls are given as the source filed them.
Experiments:
[1] = biological target: DNA repair and recombination protein RAD54-like (Homo sapiens, UniProt Q92698); test: RAD54 Holliday junction migration blockers – biochemical, fluorescence, cherry-picked samples, dose series, confirmation (AID 651657); assay type: functional
Cytochrome P450 2D6 = Cytochrome P450 2D6 (Homo sapiens, UniProt P10635);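 note: CYP2D6 member of a cytochrome P450 panel assay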
Cytochrome P450 3A4 = Cytochrome P450 3A4 (Homo sapiens, UniProt P08684);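 note: CYP3A4 tested as one member of a cytochrome P450 panel screen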
Beta-lactamase [2] = biological target: T1, Beta-lactamase (Pseudomonas aeruginosa, UniProt Q79MP6); test: inhibition of IMP-1 beta-lactamase activity – biochemical, epi-absorbance, selectivity assay for VIM-2 inhibitor project, dose response (AID 1920)
Beta-lactamase [3] = biological target: T1, Beta-lactamase; test: […] counterscreen for selective VIM-2 inhibitors: dose response biochemical high throughput screening assay to identify inhibitors of IMP-1 metallo-beta-lactamase.
Beta-lactamase [4] = biological target: Beta-lactamase (Salmonella choleraesuis (strain SC-B67), UniProt Q5J463); test: Epi-absorbance-based counterscreen for selective VIM-2 inhibitors: dose response biochemical high throughput screening assay to identify inhibitors of TEM-1 serine-beta-lactamase.
[5] = biological target: Dual specificity protein phosphatase 3 (Homo sapiens, UniProt P51452); test: VHR phosphatase inhibition, dose response, selectivity assay for STEP inhibitor project, biochemical (AID 602374); assay type: functional; conditions: read-out: IC50_Mean
[6] = biological target: Tyrosine-protein phosphatase non-receptor type 11 (Homo sapiens, UniProt Q06124); test: PTPN11 enzyme inhibitors – biochemical, selectivity assay for STEP inhibitor project, dose response (AID 602367); assay type: functional; conditions: read-out: IC50_Mean
[7] = biological target: Tyrosine-protein phosphatase non-receptor type 5 (Homo sapiens, UniProt P54829); test: PTPN5 enzyme inhibition – biochemical, fluorescence intensity, uHTS hits, confirmation (AID 602372); assay type: functional; conditions: read-out: IC50_Mean
[8] = biological target: T2, Sentrin-specific protease 8 (Homo sapiens, UniProt Q96LD8); assay type: functional
T2 sequence (Q96LD8 whole entry): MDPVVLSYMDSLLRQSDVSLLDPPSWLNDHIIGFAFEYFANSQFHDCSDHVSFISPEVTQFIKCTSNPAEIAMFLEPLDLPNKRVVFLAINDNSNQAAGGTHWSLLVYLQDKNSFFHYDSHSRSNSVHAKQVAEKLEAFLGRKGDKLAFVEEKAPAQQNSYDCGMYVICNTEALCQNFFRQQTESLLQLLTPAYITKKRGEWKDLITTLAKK

[9] = biological target: T2, Sentrin-specific protease 8; assay type: functional; remark: listed apart in the source
[10] = viability loss in HeLa cells – cytotoxicity control for MgcRacGAP inhibitor project, dose response (AID 624300); assay type: functional
[11] = biological target: T3, Rac GTPase-activating protein 1 (Homo sapiens, UniProt Q9H0H5); test: blockers of MgcRacGAP-driven Rac1 GTP hydrolysis – biochemical, ADP Hunter fluorescence, primary and confirmatory, confirmation (AID 624330); assay type: functional
T3 sequence (Q9H0H5 whole entry): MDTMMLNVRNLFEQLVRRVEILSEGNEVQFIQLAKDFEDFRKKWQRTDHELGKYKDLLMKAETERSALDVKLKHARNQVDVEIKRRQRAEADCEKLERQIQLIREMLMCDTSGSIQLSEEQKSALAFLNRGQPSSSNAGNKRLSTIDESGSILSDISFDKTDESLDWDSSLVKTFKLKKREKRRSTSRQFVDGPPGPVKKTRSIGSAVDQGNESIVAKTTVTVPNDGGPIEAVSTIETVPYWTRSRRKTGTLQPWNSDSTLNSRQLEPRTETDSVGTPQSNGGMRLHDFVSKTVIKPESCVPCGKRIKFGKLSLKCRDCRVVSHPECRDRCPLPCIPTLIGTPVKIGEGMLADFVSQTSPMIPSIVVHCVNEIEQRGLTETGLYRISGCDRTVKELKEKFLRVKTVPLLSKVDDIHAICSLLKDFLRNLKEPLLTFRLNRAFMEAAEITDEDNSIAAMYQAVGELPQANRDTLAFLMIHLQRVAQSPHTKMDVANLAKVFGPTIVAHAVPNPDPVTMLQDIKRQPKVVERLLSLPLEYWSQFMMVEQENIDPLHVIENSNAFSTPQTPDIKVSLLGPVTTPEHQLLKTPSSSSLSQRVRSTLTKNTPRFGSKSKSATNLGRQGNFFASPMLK

[12] = biological target: G-protein coupled receptor 55 (Homo sapiens, UniProt Q9Y2T6); test: inhibition of LPI-stimulated GPR55 beta-arrestin translocation – imaging, U2OS, beta-arrestin-GFP, LPI agonist, primary screen (AID 2013); assay type: functional;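 note: antagonist potency measured as reduced agonist-driven arrestin aggregation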
[13] = biological target: T4, DNA repair protein RAD52 homolog (Homo sapiens, UniProt P43351); assay type: functional, biochemical
T4 sequence (P43351 whole entry): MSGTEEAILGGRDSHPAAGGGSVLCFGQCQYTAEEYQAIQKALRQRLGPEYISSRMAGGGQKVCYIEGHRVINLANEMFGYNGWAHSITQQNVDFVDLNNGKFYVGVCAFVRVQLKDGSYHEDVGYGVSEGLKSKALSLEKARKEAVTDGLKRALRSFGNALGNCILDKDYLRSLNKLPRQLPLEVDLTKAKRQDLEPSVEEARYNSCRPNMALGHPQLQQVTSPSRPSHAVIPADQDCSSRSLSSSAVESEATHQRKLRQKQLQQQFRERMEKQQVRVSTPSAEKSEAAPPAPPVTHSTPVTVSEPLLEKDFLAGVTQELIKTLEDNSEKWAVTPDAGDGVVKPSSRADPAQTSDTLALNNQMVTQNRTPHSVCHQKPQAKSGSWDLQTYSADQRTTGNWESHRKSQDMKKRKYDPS

[14] = biological target: DNA (cytosine-5)-methyltransferase 1 (Homo sapiens, UniProt P26358); test: inhibition of DNA methylation by DNMT1 – biochemical, fluorescent molecular beacon, confirmation (AID 602386); assay type: functional
Vero [15] = test: mammalian cell viability reduction – secondary assay, cytotoxicity control for West Nile virus antiviral project, dose response (AID 1650); assay type: functional; conditions: Chlorocebus sabaeus
[16] = Counterscreen for inhibitors of Trypanosoma brucei methionyl tRNA synthetase (MetRS): Luminescence-based cell-based high throughput dose response assay to identify compounds that are cytotoxic to Jurkat human T lymphocyte cells.; assay type: functional
[17] = biological target: T5, Methionyl-tRNA synthetase, putative (Trypanosoma brucei brucei, UniProt Q38C91); assay type: functional, Trypanosoma brucei brucei strain 927/4 GUTat10.1
T5 sequence (Q38C91 whole entry): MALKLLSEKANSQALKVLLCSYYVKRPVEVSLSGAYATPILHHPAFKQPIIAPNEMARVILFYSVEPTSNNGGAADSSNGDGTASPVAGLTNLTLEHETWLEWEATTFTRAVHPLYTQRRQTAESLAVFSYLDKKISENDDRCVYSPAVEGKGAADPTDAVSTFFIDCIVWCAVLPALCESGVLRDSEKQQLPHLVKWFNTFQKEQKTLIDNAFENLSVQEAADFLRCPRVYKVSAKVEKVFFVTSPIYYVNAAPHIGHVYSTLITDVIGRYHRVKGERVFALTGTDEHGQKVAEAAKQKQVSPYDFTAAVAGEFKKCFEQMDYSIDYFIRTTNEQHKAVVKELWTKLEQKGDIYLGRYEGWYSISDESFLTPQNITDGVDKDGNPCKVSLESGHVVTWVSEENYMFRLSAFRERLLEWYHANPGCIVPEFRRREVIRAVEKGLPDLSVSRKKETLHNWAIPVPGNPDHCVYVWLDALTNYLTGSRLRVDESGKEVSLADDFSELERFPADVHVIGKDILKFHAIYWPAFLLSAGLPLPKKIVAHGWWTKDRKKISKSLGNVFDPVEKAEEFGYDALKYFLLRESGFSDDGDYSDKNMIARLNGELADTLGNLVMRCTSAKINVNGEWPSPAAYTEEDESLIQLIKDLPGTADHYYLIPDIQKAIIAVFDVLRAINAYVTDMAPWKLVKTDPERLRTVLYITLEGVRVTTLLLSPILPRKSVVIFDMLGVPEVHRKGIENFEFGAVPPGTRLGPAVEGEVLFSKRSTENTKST

[18] = biological target: T5, Methionyl-tRNA synthetase, putative; assay type: functional, Trypanosoma brucei brucei strain 927/4 GUTat10.1; remark: listed apart in the source
Vero [19] = test: viability loss in Vero cells – cell-based, plate reader, cherry-pick samples, cytotoxicity control, dose response (AID 687020); assay type: functional; conditions: Chlorocebus sabaeus

T1 sequence (Q79MP6 whole entry): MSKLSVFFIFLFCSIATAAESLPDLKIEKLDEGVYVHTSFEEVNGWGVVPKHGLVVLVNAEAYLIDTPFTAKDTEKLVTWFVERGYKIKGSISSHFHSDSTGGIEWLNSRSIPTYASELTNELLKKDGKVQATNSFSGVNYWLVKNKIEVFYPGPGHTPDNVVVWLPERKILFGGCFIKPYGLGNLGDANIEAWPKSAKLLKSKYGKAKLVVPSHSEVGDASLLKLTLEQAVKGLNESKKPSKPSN
Sequence of Beta-lactamase (Salmonella choleraesuis (strain SC-B67), UniProt Q5J463) (Q5J463 whole entry): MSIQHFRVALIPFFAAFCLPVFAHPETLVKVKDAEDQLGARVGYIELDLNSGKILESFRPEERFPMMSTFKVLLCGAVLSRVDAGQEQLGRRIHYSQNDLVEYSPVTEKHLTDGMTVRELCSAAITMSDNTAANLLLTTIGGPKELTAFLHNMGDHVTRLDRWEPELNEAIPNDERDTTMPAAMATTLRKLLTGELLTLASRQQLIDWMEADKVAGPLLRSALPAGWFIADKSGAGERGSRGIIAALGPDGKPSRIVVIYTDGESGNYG
Sequence of DNA repair and recombination protein RAD54-like (Q92698 whole entry): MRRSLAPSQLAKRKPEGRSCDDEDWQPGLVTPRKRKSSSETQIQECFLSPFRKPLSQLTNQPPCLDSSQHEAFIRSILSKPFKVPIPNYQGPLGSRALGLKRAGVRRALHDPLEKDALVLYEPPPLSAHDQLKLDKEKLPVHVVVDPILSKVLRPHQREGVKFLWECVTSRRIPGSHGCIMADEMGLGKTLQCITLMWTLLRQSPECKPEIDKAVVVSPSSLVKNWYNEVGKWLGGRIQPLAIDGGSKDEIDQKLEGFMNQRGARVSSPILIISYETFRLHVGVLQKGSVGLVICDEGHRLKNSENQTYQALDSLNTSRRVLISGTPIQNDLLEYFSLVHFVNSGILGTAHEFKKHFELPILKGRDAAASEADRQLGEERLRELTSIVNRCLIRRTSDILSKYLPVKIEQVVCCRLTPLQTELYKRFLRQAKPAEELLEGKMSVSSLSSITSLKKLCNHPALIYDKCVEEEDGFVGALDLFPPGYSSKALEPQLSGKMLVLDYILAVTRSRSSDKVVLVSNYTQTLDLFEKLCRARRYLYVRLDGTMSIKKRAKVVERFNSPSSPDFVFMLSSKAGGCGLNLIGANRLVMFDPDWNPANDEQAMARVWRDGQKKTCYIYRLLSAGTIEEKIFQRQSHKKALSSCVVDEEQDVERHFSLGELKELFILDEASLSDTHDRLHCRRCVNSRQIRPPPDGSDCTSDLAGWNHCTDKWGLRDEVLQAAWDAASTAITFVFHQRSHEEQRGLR
Sequence of Tyrosine-protein phosphatase non-receptor type 11 (Q06124 whole entry): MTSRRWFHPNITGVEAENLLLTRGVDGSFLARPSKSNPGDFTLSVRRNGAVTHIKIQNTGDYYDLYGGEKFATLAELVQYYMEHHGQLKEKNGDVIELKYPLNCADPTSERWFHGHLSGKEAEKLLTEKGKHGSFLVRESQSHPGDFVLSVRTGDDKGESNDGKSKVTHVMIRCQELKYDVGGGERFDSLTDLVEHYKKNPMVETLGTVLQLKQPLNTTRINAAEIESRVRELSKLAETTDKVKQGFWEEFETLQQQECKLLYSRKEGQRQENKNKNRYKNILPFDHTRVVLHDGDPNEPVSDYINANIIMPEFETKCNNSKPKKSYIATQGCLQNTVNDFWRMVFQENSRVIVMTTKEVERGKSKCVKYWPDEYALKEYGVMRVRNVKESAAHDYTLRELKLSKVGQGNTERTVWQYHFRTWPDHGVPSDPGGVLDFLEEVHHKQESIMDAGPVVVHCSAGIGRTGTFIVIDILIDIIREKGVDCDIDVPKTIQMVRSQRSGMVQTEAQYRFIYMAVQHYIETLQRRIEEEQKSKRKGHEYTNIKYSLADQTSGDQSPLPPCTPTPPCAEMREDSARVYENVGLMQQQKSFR
Sequence of G-protein coupled receptor 55 (Q9Y2T6 whole entry): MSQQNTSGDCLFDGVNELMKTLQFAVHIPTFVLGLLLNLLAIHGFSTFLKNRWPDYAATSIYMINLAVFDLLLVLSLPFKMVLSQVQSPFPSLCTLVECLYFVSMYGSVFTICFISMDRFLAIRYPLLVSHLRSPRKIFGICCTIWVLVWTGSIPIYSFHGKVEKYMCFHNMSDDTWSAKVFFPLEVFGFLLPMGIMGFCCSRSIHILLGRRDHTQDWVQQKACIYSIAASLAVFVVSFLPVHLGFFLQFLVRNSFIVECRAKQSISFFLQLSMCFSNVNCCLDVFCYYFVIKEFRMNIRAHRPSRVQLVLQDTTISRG
Sequence of Cytochrome P450 2D6 (P10635 whole entry): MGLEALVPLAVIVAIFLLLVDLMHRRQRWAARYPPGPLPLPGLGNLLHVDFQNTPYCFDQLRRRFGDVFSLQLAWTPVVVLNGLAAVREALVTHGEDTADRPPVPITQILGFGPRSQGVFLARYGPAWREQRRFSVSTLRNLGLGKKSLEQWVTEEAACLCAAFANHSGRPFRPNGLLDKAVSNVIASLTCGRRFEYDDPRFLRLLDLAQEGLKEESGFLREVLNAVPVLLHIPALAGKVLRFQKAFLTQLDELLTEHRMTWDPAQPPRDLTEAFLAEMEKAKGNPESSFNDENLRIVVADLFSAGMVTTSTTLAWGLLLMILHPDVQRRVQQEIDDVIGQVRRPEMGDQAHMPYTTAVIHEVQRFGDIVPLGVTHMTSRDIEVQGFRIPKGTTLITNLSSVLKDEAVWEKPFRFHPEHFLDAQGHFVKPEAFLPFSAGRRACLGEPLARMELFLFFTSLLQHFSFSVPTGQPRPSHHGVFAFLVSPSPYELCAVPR
Sequence of Tyrosine-protein phosphatase non-receptor type 5 (P54829 whole entry): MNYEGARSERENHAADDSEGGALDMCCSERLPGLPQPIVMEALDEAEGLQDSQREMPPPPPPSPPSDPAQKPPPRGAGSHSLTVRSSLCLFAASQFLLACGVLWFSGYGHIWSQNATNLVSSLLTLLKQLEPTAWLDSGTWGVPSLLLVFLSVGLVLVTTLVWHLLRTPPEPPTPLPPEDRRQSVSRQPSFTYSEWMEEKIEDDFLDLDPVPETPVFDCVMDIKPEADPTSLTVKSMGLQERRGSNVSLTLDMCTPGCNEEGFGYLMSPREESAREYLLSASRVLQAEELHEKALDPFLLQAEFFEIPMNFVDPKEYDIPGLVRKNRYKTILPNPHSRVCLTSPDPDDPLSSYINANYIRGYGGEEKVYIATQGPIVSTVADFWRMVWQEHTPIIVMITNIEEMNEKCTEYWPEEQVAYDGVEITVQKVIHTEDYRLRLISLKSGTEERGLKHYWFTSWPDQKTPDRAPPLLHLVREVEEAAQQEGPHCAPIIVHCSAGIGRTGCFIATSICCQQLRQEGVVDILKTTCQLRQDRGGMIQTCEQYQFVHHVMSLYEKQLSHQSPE
Sequence of Dual specificity protein phosphatase 3 (P51452 whole entry): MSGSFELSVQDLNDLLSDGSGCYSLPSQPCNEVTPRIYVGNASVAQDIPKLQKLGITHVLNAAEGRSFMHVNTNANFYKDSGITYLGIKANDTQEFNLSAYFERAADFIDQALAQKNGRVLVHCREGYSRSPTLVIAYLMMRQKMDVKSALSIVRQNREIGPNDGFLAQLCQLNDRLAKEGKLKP
Sequence of Cytochrome P450 3A4 (P08684 whole entry): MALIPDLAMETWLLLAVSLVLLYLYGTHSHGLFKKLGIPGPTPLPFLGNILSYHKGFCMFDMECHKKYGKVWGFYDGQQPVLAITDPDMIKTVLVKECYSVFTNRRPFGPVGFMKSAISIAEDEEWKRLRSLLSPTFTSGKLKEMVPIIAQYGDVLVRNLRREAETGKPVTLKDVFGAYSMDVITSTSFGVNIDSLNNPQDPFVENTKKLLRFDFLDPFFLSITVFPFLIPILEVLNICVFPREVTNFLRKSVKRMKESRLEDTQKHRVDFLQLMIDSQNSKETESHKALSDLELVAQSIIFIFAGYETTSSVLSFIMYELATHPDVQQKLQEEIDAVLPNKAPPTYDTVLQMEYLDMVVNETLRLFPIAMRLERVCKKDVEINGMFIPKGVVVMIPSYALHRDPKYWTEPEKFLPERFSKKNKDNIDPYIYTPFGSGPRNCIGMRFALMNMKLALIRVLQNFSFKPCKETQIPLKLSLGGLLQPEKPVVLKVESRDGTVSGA

In the case of CCN1CCN(c2nn3c(=O)c4ccccc4nc3c3ccccc23)CC1, the AC50 [1] was 19.9 µM (active), the AC50 (Cytochrome P450 2D6) was 14.1 µM (inconclusive) and the AC50 (Cytochrome P450 3A4) was 20 µM (inconclusive).

For C=CCn1c(S)nnc1C1CC1, the IC50 (Beta-lactamase [2]) was > 59.6 µM (inactive), the IC50 (Beta-lactamase [3]) was > 59.6 µM (inactive) and the IC50 (Beta-lactamase [4]) was > 59.6 µM (inactive).

For Sc1ncnc2c1ncn2-c1ccc(Cl)cc1, the IC50 [5] was 1.48 µM (active), the IC50 [6] was 6.29 µM (active) and the IC50 [7] was 29.4 µM (inactive).

With COC(=O)CCCC1=CC2=CC(=O)C(C)(OC(=O)c3cccs3)C(=O)C2=CN1CCc1ccccn1 (stereo not given) the IC50 [8] was 9.96 µM (active) and the IC50 [9] was 20.9 µM (active).

With Cc1n[nH]c(-c2ccc(O)cc2O)c1Oc1ccccc1 the CC50 [10] was 100 µM (active), the IC50 [11] was 34.2 µM (active) and the IC50 [12] was 8.31 µM (active).

In the case of CN(C)CCNC(=O)c1cccc(-c2cnc3c(NC=O)cc(-c4ccc(C(=O)N5CCOCC5)cc4)cn23)c1, the AC50 [13] was 9.04 µM (active) and the AC50 [1] was 47.8 µM (active).

With O=C(CSc1nc(O)c2ccccc2n1)Nc1nc(-c2ccc(Br)cc2)cs1 the IC50 [14] was 5.12 µM (active) and the CC50 (Vero [15]) was 35.9 µM (active).

For O=C(CCCSc1ccc(Cl)cc1)Nc1ccccc1O, the IC50 [16] was 0.158 µM (active), the IC50 [17] was 24.1 µM (inactive) and the IC50 [18] was 24.8 µM (inactive).

For COC(=O)c1ccc2nc(-c3ccc(F)cc3)c(Cc3ccccc3OC)n2c1, the AC50 (Vero [19]) was 35.2 µM (active).

In the case of O=C(O)CC/C(=C\c1cc([N+](=O)[O-])ccc1Cl)c1nc2ccccc2s1, the IC50 (Beta-lactamase [2]) was > 59.6 µM (inactive), the IC50 (Beta-lactamase [3]) was 43.1 µM (inactive) and the IC50 (Beta-lactamase [4]) was > 59.6 µM (inactive).

Reference: ChEMBL document CHEMBL1201862, “PubChem BioAssay data set” (2004)
